# Reference: US11130733B2, “4-OXO-alkylated tetramic acid compound, preparation method and use thereof” (BEIJING JOEKAI BIOTECH. LLC, priority 2017, dated 2021)
# “And” between values parts separate entries of the source, which are not always exact repeats. Identical values can stand only once.
# Experiment: Pharmacokinetic evaluation, plasma and brain concentrations
# Format: in vivo, ICR mice
# From the text: Distribution of a medicament in the body is one of the important indicators to determine the dose and efficacy of the medicament. Thus, excellent candidate compounds should have good pharmacokinetic characteristics. In addition, since the compound of the present invention is intended to be used for the treatment of Alzheimer's disease, which is a disease of the central nervous system, the distribution pattern of the compound in the brain and the blood is also one of the subjects to be investigated. In this experiment, compound 50561 was administered to mice […] or by gavage, and the concentrations of the compound in blood and brain were measured at specific time points to determine the pharmacokinetic parameters.
# Forty-eight male ICR mice purchased from Shanghai Sippr-BK Lab. Animal Co. Ltd were used in this experiment. The oral group was fasted for 10-14 hours before administration, and feeding was restored 4 hours after administration. Samples were collected from the intravenous administration group 0.083 h, 0.25 h, 0.5 h, 1 h, 2 h, 4 h, 8 h, and 24 h after administration, respectively: while for the oral administration group, about 0.5 mL of blood was collected from the heart 0.25 h, 0.5 h, 1 h, 2 h, 4 h, 6 h, 8 h, and 24 h after administration, respectively. Heparin sodium was used for anticoagulation. Blood samples were collected and placed on ice, and plasma was separated by centrifugation (centrifugation conditions: 8000 rpm, 6 minutes, 4C). The collected plasma was stored at −80° C. before analysis. After collecting plasma samples, brain tissues were collected, washed with normal saline, water-absorbed by filter paper, weighed immediately, and then placed in labeled tubes (one tube for one brain tissue). The samples to be tested were temporarily placed on ice before being stored in a −80° C. refrigerator.
# The analysis methods of biological samples and the analysis of all samples were done by Medicilon Pharmaceutical Technology (Shanghai) Co., Ltd. The intraday accuracy evaluation of the quality control samples was carried out while analyzing the samples, and the accuracy of over 66.7% of the quality control samples was required to be between 80-120%.
# When calculating the pharmacokinetic parameters, the BLQ before Cmax (including “No peak”) was calculated as 0; BLQ occurring after Cmax (including “No peak”) was not involved in the calculation. WinNonlin Professional V 5.2 (Pharsight, USA) was adopted to calculate the following pharmacokinetic parameters: AUC(0-t), AUC(0-∞), T1/2, MRT(0-∞), Cmax, and Tmax. The tissue/plasma ratio was to be calculated by the following formula based on the blood concentration data at different time points: Tissue/plasma ratio (mL/g)=tissue blood concentration/plasma blood concentration.
smiles,measurement,setting,value
O=C1C=C(OCc2ccc(F)cc2)[C@H](Cc2ccccc2)N1 [Compound 50561],"Brain/plasma ratio, Mean","IV 1 mg/kg, 0.083 hr",2.499 mL/G
same,"Blood concentration, individual mice","IV 1 mg/kg, 0.083 hr, 1 mg/kg",327.86 ng/mL and 145.16 ng/mL and 434.45 ng/mL
same,"Brain tissue concentration, individual mice","IV 1 mg/kg, 0.083 hr, 1 mg/kg",853.63 ng/G and 383.96 ng/G
same,"Brain/plasma ratio, individual mice","IV 1 mg/kg, 0.083 hr, 1 mg/kg",2.604 mL/G and 2.645 mL/G and 2.249 mL/G
same,"Brain/plasma ratio, Mean","IV 1 mg/kg, 0.25 hr",2.342 mL/G
same,"Blood concentration, individual mice","IV 1 mg/kg, 0.25 hr, 1 mg/kg",180.29 ng/mL and 215.73 ng/mL
same,"Brain tissue concentration, individual mice","IV 1 mg/kg, 0.25 hr, 1 mg/kg",435.34 ng/G and 465.70 ng/G
same,"Brain/plasma ratio, individual mice","IV 1 mg/kg, 0.25 hr, 1 mg/kg",2.451 mL/G and 2.415 mL/G and 2.159 mL/G
same,"Brain/plasma ratio, Mean","IV 1 mg/kg, 0.5 hr",2.488 mL/G
same,"Blood concentration, individual mice","IV 1 mg/kg, 0.5 hr, 1 mg/kg",98.13 ng/mL and 89.73 ng/mL
same,"Brain tissue concentration, individual mice","IV 1 mg/kg, 0.5 hr, 1 mg/kg",251.60 ng/G and 211.84 ng/G
same,"Brain/plasma ratio, individual mice","IV 1 mg/kg, 0.5 hr, 1 mg/kg",2.540 mL/G and 2.564 mL/G and 2.361 mL/G
same,"Brain/plasma ratio, Mean","IV 1 mg/kg, 1 hr",3.007 mL/G
same,"Blood concentration, individual mice","IV 1 mg/kg, 1 hr, 1 mg/kg",18.27 ng/mL and 8.99 ng/mL and 18.70 ng/mL
same,"Brain tissue concentration, individual mice","IV 1 mg/kg, 1 hr, 1 mg/kg",35.43 ng/G and 51.45 ng/G
same,"Brain/plasma ratio, individual mice","IV 1 mg/kg, 1 hr, 1 mg/kg",2.330 mL/G and 3.941 mL/G and 2.751 mL/G
same,"Blood concentration, individual mice","IV 1 mg/kg, 2 hr",BLQ
same,"Brain tissue concentration, individual mice","IV 1 mg/kg, 2 hr",BLQ
same,"Blood concentration, individual mice","IV 1 mg/kg, 4 hr",BLQ
same,"Brain tissue concentration, individual mice","IV 1 mg/kg, 4 hr",BLQ
same,"Blood concentration, individual mice","IV 1 mg/kg, 8 hr",BLQ
same,"Brain tissue concentration, individual mice","IV 1 mg/kg, 8 hr",BLQ
same,"Blood concentration, individual mice","IV 1 mg/kg, 24 hr",BLQ
same,"Brain tissue concentration, individual mice","IV 1 mg/kg, 24 hr",BLQ
same,"Brain/plasma ratio, Mean","PO 10 mg/kg, 0.25 hr",1.877 mL/G
same,"Blood concentration, individual mice","PO 10 mg/kg, 0.25 hr, 10 mg/kg",655.31 ng/mL and 548.11 ng/mL
same,"Brain tissue concentration, individual mice","PO 10 mg/kg, 0.25 hr, 10 mg/kg",1042.09 ng/G and 1147.13 ng/G
same,"Brain/plasma ratio, individual mice","PO 10 mg/kg, 0.25 hr, 10 mg/kg",1.948 mL/G and 1.590 mL/G and 2.093 mL/G
same,"Brain/plasma ratio, Mean","PO 10 mg/kg, 0.5 hr",2.147 mL/G
same,"Blood concentration, individual mice","PO 10 mg/kg, 0.5 hr, 10 mg/kg",631.98 ng/mL and 529.57 ng/mL
same,"Brain tissue concentration, individual mice","PO 10 mg/kg, 0.5 hr, 10 mg/kg",2484.73 ng/G and 1280.85 ng/G and 1048.58 ng/G
same,"Brain/plasma ratio, individual mice","PO 10 mg/kg, 0.5 hr, 10 mg/kg",2.435 mL/G and 2.027 mL/G and 1.980 mL/G
same,"Brain/plasma ratio, Mean","PO 10 mg/kg, 1 hr",2.265 mL/G
same,"Blood concentration, individual mice","PO 10 mg/kg, 1 hr, 10 mg/kg",599.81 ng/mL and 532.80 ng/mL
same,"Brain tissue concentration, individual mice","PO 10 mg/kg, 1 hr, 10 mg/kg",1290.84 ng/G and 1149.69 ng/G
same,"Brain/plasma ratio, individual mice","PO 10 mg/kg, 1 hr, 10 mg/kg",2.485 mL/G and 2.152 mL/G and 2.158 mL/G
same,"Brain/plasma ratio, Mean","PO 10 mg/kg, 2 hr",2.329 mL/G
same,"Blood concentration, individual mice","PO 10 mg/kg, 2 hr, 10 mg/kg",128.34 ng/mL and 83.99 ng/mL and 219.54 ng/mL
same,"Brain tissue concentration, individual mice","PO 10 mg/kg, 2 hr, 10 mg/kg",277.53 ng/G and 206.08 ng/G and 520.70 ng/G
same,"Brain/plasma ratio, individual mice","PO 10 mg/kg, 2 hr, 10 mg/kg",2.163 mL/G and 2.454 mL/G and 2.372 mL/G
same,"Brain/plasma ratio, Mean","PO 10 mg/kg, 4 hr",2.052 mL/G
same,"Blood concentration, individual mice","PO 10 mg/kg, 4 hr, 10 mg/kg",27.74 ng/mL and 18.40 ng/mL and 10.71 ng/mL
same,"Brain tissue concentration, individual mice","PO 10 mg/kg, 4 hr, 10 mg/kg",65.84 ng/G and 44.67 ng/G and 14.52 ng/G
same,"Brain/plasma ratio, individual mice","PO 10 mg/kg, 4 hr, 10 mg/kg",2.373 mL/G and 2.428 mL/G and 1.355 mL/G
